One test relates to H3K27me2. Put plainly: H3K27me2 ChIP-qPCR at Postn and Pdgfra loci. The note with it: control cells (Ad-βgal), 12 hours. Type of test: cell-based, mouse. On the procedure: ChIP was performed using the ChIP-IT High Sensitivity. Cells were fixed, lysed and sonicated for 30 minutes (30 seconds on, 30 seconds off) leading to chromatin fragments between 200 and 1200 base pairs. DNA-bound protein was immunoprecipitated using 2 μg anti-H3K27me2 or IgG. Following IP, cross-links were reversed, protein was removed, and DNA was purified. qPCR was performed with equal amounts of H3K27me2-immunoprecipitated sample, IgG-immunoprecipitated sample, and input sample. Values were normalized to input measurements and fold enrichment was calculated. qPCR primers (Table 4) were designed to target gene loci regions flanking or nearby myofibroblast transcription factor predicted binding sites according to Genomatrix-MatInspector Software analysis.
Background: In qPCR the cycle at which signal appears reflects the starting amount.

For another test, the system named is MEFs. In words: Metabolomic profiling of MEFs (CE-TOFMS, CE-QqQMS). In kind it is cell-based, mouse. On the procedure: Cells in a 10 cm dish were washed with 5% (w/w) mannitol (10mL for the first wash, 2 mL for the second wash) and extracted in 800 μL methanol plus 550 μL internal standard solution (Human Metabolome Technologies, HMT). Extracted solution was spun down at 2,300×g at 4° C. for 5 minutes. The supernatant was transferred into centrifugal filter units (HMT) and centrifuged at 9,100×g at 4° C. for ˜3.5 h until no liquid remained in the filter cup. Filtrate was frozen at −80° C. and shipped to HMT for analysis by CE-TOFMS and CE-QqQMS (Boston, Mass.). Filtrate was centrifugally concentrated and resuspended in 50 μl of ultrapure water immediately before the measurement.
Cationic metabolites were analyzed using an Agilent CE-TOFMS system Machine No. 3 and a fused silica capillary (i.d. 50 μm×80 cm) with Cation Buffer Solution as the electrolyte. The sample was injected at a pressure of 50 mbar for 10 seconds. The applied voltage was set at 27 kV. Electrospray ionization-mass spectrometry (ESI-MS) was conducted in the positive ion mode, and the capillary voltage was set at 4,000 V. The spectrometer was scanned from m/z 50 to 1,000.
Anionic metabolites were analyzed using an Agilent Capillary Electrophoresis System equipped with an Agilent 6460 TripleQuad LC/MS Machine No. QqQ3 and a fused silica capillary (i.d. 50 μm×80 cm) with Anion Buffer Solution as the electrolyte. The sample was injected at a pressure of 50 mbar for 25 seconds. The applied voltage was set at 30 kV. ESI-MS was conducted in the positive and negative ion mode, and the capillary voltage was set at 4,000 V for positive and 3, 500 V for negative mode.
Peaks detected in CE-TOFMs analysis were extracted using automatic integration software and those in CE-QqQMS analysis were extracted using automatic integration software in order to obtain peak information including m/z, migration time, and peak area. The peak area was then converted to relative peak area by the following equation: Relative peak area=Metabolite Peak Area/(Internal Standard Peak Area x Normalization Factor). The peaks were annotated based on the migration times in CE and m/z values determined by TOFMS. Putative metabolites were then assigned from HMT metabolite database on the basis of m/z and migration time. All metabolite concentrations were calculated by normalizing the peak area of each metabolite with respect to the area of the internal standard and by using standard curves, which were obtained by three-point calibrations. A heat map was generated using ClustVis. Unit variance was applied to rows. Rows were clustered using Manhattan distance and average linkage.

The next test has as its target T1, mtCU (Mus musculus, UniProt Q3UMR5+Q8VCX5).
T1 construct: After treating wildtype (WT) MEFs with TGFβ for 12 hours, fibroblasts were permeabilized with digitonin; endogenous in cells; host or cells: wild-type (C57/BL6) mouse embryonic fibroblasts, digitonin-permeabilized, with or without 12 h TGFβ
Put plainly: Evaluation of mCa2+ uptake in permeabilized MEFs (Fura-2, Hill fit). Type of test: cell-based. On the procedure: Before permeabilization, MEFs were washed in extracellular-like Ca^2+-free buffer (120 mM NaCl, 5 mM KCl, 1 mM KH2PO4, 0.2 mM MgCl2, 0.1 mM EGTA, 20 mM HEPEs-NaOH, pH 7.4). MEFs (1.5 million) were then transferred to intracellular-like medium (ICM) (120 mM KCl, 10 mM NaCl, 1 mM KH2PO4, 20 mM HEPES-Tris, protease inhibitors, 5 mM succinate, 2 μM thapsigargin, 40 μg ml^−1 digitonin, 10 μM CGP-37157 (NCLX inhibitor), pH 7.2). ICM was cleared with Chelex 100 to remove trace Ca^2+. MEFs were gently stirred and 1 μM Fura-2 was added to monitor extra-mitochondrial Ca^2+. At 20 seconds, JC-1 was added to monitor Δψ. Fluorescence signals were monitored in a temperature controlled (37° C.) multi-wavelength-excitation/dual-wavelength-emission spectrofluorometer (Delta RAM, Photon Technology Int.) using 490-nm excitation (ex)/535-nm emission (em) for the JC-1 monomer, 570-nm ex/595-nm em for the J-aggregate of JC-1, and 340- and 380-nm ex/510-nm em for Fura-2. […]
To quantify actual Ca^2+ content, a standard curve of Ca^2+ binding Fura-2 was generated from serial diluted Ca^2+ standards (0.01-120 μM) in ICM. Fura-2 fluorescence ratio was converted to [Ca^2+] by the following equation: [Ca^2+]=Kd*(R−Rmin)/(Rmax−R)*Sf2/Sb2. (Rmin (ratio in 0-Ca^2+)=1.341; Rmax (ratio at saturation)=27.915; Sf2 (380/510 reading in 0-Ca^2+)=15822.14; Sb2 (380/510 reading with Ca^2+ saturation)=1794.32). […]

T1 sequence (Q3UMR5 50-350): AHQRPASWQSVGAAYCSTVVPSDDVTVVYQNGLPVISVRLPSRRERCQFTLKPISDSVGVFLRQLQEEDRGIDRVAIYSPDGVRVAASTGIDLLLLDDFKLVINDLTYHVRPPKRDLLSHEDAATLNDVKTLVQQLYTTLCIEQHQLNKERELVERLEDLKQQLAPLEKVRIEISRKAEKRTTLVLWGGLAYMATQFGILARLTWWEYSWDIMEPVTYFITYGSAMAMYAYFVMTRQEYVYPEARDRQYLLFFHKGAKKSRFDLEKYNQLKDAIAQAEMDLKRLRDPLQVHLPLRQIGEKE
T1 sequence (Q8VCX5 34-477): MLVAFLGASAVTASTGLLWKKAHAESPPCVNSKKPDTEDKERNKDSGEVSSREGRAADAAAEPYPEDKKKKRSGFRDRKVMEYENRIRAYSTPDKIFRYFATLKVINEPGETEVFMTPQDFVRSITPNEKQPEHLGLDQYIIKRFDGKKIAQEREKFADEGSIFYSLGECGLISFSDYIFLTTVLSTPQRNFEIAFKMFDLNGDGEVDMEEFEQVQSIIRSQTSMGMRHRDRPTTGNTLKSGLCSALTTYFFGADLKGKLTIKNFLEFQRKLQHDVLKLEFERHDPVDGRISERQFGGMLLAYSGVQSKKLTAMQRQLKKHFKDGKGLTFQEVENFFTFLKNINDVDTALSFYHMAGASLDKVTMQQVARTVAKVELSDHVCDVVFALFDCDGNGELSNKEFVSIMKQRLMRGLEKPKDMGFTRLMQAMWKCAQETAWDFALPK
T1 sequence (Q9DB10 48-107 partner): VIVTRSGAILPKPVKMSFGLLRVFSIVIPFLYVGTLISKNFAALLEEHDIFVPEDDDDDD
T1 sequence (Q8CD10 23-432 partner): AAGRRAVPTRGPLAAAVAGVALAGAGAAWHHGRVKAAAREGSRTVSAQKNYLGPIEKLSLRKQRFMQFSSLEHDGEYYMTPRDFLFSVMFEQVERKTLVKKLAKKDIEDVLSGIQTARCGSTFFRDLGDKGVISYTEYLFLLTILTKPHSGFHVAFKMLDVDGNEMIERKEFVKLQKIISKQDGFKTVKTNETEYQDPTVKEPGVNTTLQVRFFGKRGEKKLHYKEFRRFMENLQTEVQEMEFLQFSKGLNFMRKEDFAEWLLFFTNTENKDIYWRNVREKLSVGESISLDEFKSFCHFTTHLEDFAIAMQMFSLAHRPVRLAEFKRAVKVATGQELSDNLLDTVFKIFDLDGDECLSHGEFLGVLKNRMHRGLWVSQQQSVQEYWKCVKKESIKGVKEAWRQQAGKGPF

With “TGFβ: recombinant mouse Transforming growth factor-β, pro-fibrotic agonist”, the “H3K27me2 enrichment at the Postn and Pdgfra loci” value with H3K27me2 is “lost”. Besides, the “α-ketoglutarate (αKG)” value with MEFs (12 h after treatment) is recorded as “increased”. Also, in the test with MEFs (12 h post-treatment), the “F-1,6-BP” value is given as “significantly increased” and the citrate levels result is on record as “significantly reduced”. For the same substance, in the test on MEFs (control MEFs 12 h post-treatment, from 1000 at baseline), the pyruvate is reported as 1600 pmol/million cells. Also, the “glutamine (Gln) and glutamate (Glu) levels” value in the test on MEFs (control cells) is on record as “decreased”. In the test on MEFs (treated fibroblasts), the “increase in αKG” value is ~2 fold. Also, the “Hill coefficient of mCa2+ uptake dose response curve” value with mtCU (WT MEFs treated 12 hours, control cells 4.29) is 10.27. Moreover, the “mCa2+ uptake” value in the test with mtCU (following delivery of ~0.5-2 μM [Ca2+], 12 hours treatment) is recorded as “decrease”.

The values above are taken from patent publication US20210330744A1, “Methods and Compositions for Treating Neurodegeneration and Fibrosis” (Temple University-Of The Commonwealth System of Higher …, priority 2017, published 2021).
